Experimental data taken from patent US20040142012A1, “Geometry retainable devices for body cavities” (priority 2001, published 2004).

Settings: in vivo
Procedure: Progesterone content in the plasma was determined by direct radio immuno assay (Coat-a-Count, DPC, USA).

Time to return to undetectable basal plasma progesterone levels after insert removal: ≤ 24 h
Substance: poly (ε-caprolactone)
